24 molecules from patent US8461328B2, “Tricyclic heterocyclic compounds, compositions and methods of use thereof” (Genentech, Inc., priority 2010, dated 2013) can be followed below.

Holding throughout (type): biochemical
One assay has as its target T1, JAK1 (Homo sapiens, UniProt P23458).
T1 construct: made in house; host or cells: SF9 insect cells (baculovirus)
Put plainly: JAK1 inhibition (Table 4). The settings on record: read-out: JAK1 Ki.

The next assay addresses T2, TYK2 (Homo sapiens, UniProt P29597).
T2 construct: made in house; host or cells: SF9 insect cells (baculovirus)
T2 sequence (P29597 873-1187): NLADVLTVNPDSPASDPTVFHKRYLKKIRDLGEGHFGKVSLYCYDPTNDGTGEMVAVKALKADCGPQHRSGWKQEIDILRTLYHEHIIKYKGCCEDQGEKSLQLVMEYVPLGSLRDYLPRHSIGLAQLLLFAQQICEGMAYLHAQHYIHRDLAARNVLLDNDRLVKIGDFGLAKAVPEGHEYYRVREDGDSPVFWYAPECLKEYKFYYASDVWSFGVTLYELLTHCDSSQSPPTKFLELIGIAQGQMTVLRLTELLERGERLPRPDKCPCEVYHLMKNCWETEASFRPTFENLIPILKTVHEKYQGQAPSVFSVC
Put plainly: TYK2 inhibition (Table 4).

A further assay deals with T3, JAK2 (Homo sapiens, UniProt O60674).
T3 construct: made in house; host or cells: SF9 insect cells (baculovirus)
T3 sequence (O60674 812-1132): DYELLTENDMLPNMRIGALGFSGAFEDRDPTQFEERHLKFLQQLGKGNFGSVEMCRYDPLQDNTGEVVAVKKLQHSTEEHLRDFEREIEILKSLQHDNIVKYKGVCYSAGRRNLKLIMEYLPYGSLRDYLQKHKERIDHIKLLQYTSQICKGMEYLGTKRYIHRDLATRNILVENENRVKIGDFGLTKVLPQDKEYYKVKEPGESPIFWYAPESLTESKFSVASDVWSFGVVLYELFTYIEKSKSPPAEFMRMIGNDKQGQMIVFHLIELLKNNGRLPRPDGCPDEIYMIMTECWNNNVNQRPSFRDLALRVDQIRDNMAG
Nature of the assay: JAK2 inhibition (Table 4). The settings on record: read-out: JAK2 Ki.

A further assay deals with T4, JAK3 (Homo sapiens, UniProt P52333).
T4 construct: made in house; host or cells: SF9 insect cells (baculovirus)
T4 sequence (P52333 783-1124): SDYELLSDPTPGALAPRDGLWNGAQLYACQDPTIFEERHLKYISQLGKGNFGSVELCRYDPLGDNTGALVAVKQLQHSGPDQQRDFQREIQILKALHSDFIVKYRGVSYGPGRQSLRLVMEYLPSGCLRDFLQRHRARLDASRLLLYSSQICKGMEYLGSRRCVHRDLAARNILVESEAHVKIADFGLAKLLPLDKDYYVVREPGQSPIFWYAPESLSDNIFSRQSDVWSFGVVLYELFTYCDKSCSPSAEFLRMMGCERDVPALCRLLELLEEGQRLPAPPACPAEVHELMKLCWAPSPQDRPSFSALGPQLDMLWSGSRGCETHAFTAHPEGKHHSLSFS
Put plainly: JAK3 inhibition (Table 4). The conditions noted are these: read-out: JAK3 Ki.

T1 sequence (P23458 852-1154): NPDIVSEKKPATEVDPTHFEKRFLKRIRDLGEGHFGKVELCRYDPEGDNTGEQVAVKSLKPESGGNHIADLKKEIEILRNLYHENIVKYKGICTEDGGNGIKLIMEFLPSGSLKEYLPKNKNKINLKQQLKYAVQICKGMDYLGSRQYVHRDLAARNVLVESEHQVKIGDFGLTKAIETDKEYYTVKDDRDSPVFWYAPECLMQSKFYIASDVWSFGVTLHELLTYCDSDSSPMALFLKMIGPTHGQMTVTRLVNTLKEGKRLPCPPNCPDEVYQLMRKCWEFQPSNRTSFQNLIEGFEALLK

With `CCOC(=O)NCCc1nc2cnc3[nH]ccc3c2n1C1CCN(CC)CC1(F)F` (stereo not drawn) [Example 678, {2-[1-(1-Ethyl-3,3-difluoro-piperidin-4-yl)-1,6-dihydro-1,2,3,5,6-tetraaza-as-indacen-2-yl]-ethyl}-carbamic acid ethyl ester], the Ki was determined as 3.95 nM at JAK1, 276 nM on TYK2, 31.8 nM on JAK2 and 23.6 nM on JAK3.
The corresponding values for `CCN1CC[C@@H](n2c(CCNS(=O)(=O)CC)nc3cnc4[nH]ccc4c32)[C@@H](F)C1` [Example 681, Ethanesulfonic acid {2-[1-((3S,4R)-1-ethyl-3-fluoro-piperidin-4-yl)-1,6-dihydro-1,2,3,5,6-tetraaza-as-indacen-2-yl]-ethyl}-amide] are 4.21 nM, 290 nM, 32.6 nM and 133 nM.
Turning to `C[C@@H](O)c1nc2cnc3[nH]ccc3c2n1C1CCN(Cc2ncccc2F)CC1` [Example 682, (R)-1-{1-[1-(3-Fluoro-pyridin-2-ylmethyl)-piperidin-4-yl]-1,6-dihydro-1,2,3,5,6-tetraaza-as-indacen-2-yl}-ethanol], the Ki was 8.63 nM at JAK1, 387 nM at TYK2, 103 nM at JAK2 and 31 nM on JAK3.
With `CC(C)(C)COCc1nc2cnc3[nH]ccc3c2n1C1CCN(CCC#N)CC1` [Example 683, 3-{4-[2-(2,2-Dimethyl-propoxymethyl)-6H-1,2,3,5,6-tetraaza-as-indacen-1-yl]-piperidin-1-yl}-propionitrile], the Ki on JAK1 is 162 nM; on TYK2, 1750 nM; at JAK2, 259 nM; on JAK3, 308 nM.
The corresponding values for `CO[C@H](C)c1nc2cnc3[nH]ccc3c2n1C1CCCCC1` [Example 685, 1-Cyclohexyl-2-((R)-1-methoxy-ethyl)-1,6-dihydro-1,2,3,5,6-tetraaza-as-indacene] are 37.1 nM, 125 nM, 115 nM and 34.4 nM.
In the same order, the values of `C[C@@H](O)c1nc2cnc3[nH]ccc3c2n1[C@@H]1CCN(S(C)(=O)=O)C1` [Example 686, (R)-1-[1-((R)-1-Methanesulfonyl-pyrrolidin-3-yl)-1,6-dihydro-1,2,3,5,6-tetraaza-as-indacen-2-yl]-ethanol] are 47.4 nM, 4.17 nM, 27 nM and 15.3 nM.
`C[C@@H](O)c1nc2cnc3[nH]ccc3c2n1[C@@H]1CCNC1` [Example 687, (R)-1-((R)-1-Pyrrolidin-3-yl-1,6-dihydro-1,2,3,5,6-tetraaza-as-indacen-2-yl)-ethanol]: the Ki at JAK1 came to 167 nM; at TYK2 it was 834 nM; on JAK2 it was 1480 nM; on JAK3, 858 nM.
In the same order, the values of `C[C@@H](O)c1nc2cnc3[nH]ccc3c2n1[C@@H]1CCC[C@@H](O)C1` [Example 689, (1R,3R)-3-[2-((R)-1-Hydroxy-ethyl)-6H-1,2,3,5,6-tetraaza-as-indacen-1-yl]-cyclohexanol] are 2.73 nM, 5.59 nM, 52.4 nM and 57 nM.
The corresponding values for `CC(C)(C)[S+]([O-])NCc1nc2cnc3[nH]ccc3c2n1C1CCCCC1` (stereo not drawn) [Example 690, 2-Methyl-propane-2-sulfinic acid (1-cyclohyl-1,6-dihydro-1,2,3,5,6-tetraaza-as-indacen-2-ylmethyl)-amide] are 62.2 nM, 270 nM, 199 nM and 229 nM.
The corresponding values for `CC(CF)N1CCC(n2c([C@@H](C)O)nc3cnc4[nH]ccc4c32)CC1` (stereo partly drawn) [Example 691, 1-{1-[1-(2-Fluoro-1-methyl-ethyl)-piperidin-4-yl]-1,6-dihydro-1,2,3,5,6-tetraaza-as-indacen-2-yl}-ethanol] are 61.4 nM, 750 nM, 320 nM and 206 nM.
As for `CS(=O)(=O)NCCc1nc2cnc3[nH]ccc3c2n1C1CC2CCC1C2` (stereo not drawn) [Example 694, N-[2-(1-Bicyclo[2.2.1]hept-2-yl-1,6-dihydro-1,2,3,5,6-tetraaza-as-indacen-2-yl)-ethyl]-methanesulfonamide], the Ki turned out to be 0.55 nM on JAK1, 7.58 nM on TYK2, 5.63 nM at JAK2 and 20.3 nM on JAK3.
The corresponding values for `N#CCCN1CCC(n2c(CNCC(F)(F)F)nc3cnc4[nH]ccc4c32)CC1` [Example 695, 3-(4-{2-[(2,2,2-Trifluoro-ethylamino)-methyl]-6H-1,2,3,5,6-tetraaza-as-indacen-1-yl}-piperidin-1-yl)-propionitrile] are 28.4 nM, 483 nM, 77.7 nM and 63.1 nM.
In the same order, the values of `O=S1(=O)CCCN1Cc1nc2cnc3[nH]ccc3c2n1C1CCCCC1` [Example 696, 1-Cyclohyl-2-(1,1-dioxo-1,1,6-isothiazolidin-2-ylmethyl)-1,6-dihydro-1,2,3,5,6-tetraaza-as-indacene] are 13.6 nM, 49.6 nM, 66.8 nM and 57.5 nM.
The corresponding values for `CC(F)CN1CCC(n2c([C@@H](C)O)nc3cnc4[nH]ccc4c32)CC1` (stereo partly drawn) [Example 697, (R)-1-{1-[1-(2-Fluoro-propyl)-piperidin-4-yl]-1,6-dihydro-1,2,3,5,6-tetraaza-as-indacen-2-yl}-ethanol] are 3.1 nM, 32.5 nM, 64.8 nM and 36.1 nM.
Consider `Cc1nc2cnc3[nH]ccc3c2n1C1CCN(CC(O)CO)CC1` (stereo not drawn) [Example 698, 3-[4-(2-Methyl-6H-1,2,3,5,6-tetraaza-as-indacen-1-yl)-piperidin-1-yl]-propane-1,2-diol], for which the Ki at JAK1 was determined as 6.41 nM; on TYK2 it was 74.4 nM; at JAK2, 25.6 nM; on JAK3, 66.9 nM.
In the same order, the values of `CC(O)c1nc2cnc3[nH]ccc3c2n1CC1CCCO1` (stereo not drawn) [Example 699, 1-[1-(Tetrahydro-furan-2-ylmethyl)-1,6-dihydro-1,2,3,5,6-tetraaza-as-indacen-2-yl]-ethanol] are 235 nM, 1070 nM, 131 nM and 280 nM.
Consider `CC(O)c1nc2cnc3[nH]ccc3c2n1CC1CCCO1` (stereo not drawn) [Example 700, 1-[1-(Tetrahydro-furan-2-ylmethyl)-1,6-dihydro-1,2,3,5,6-tetraaza-as-indacen-2-yl]-ethanol], for which the Ki on JAK1 was determined as 478 nM; at TYK2, 1430 nM; on JAK2, 617 nM; at JAK3, 546 nM.
In the same order, the values of `Cc1nc2cnc3[nH]ccc3c2n1C1CCN(CC(C)O)CC1` (stereo not drawn) [Example 701, 1-[4-(2-Methyl-6H-1,2,3,5,6-tetraaza-as-indacen-1-yl)-piperidin-1-yl]-propan-2-ol] are 15.9 nM, 202 nM, 60.6 nM and 234 nM.
In the same order, the values of `C[C@@H](O)c1nc2cnc3[nH]ccc3c2n1C1CCN(c2cccc(C#N)n2)CC1` [Example 702, 4-[2-((R)-1-Hydroxy-ethyl)-6H-1,2,3,5,6-tetraaza-as-indacen-1-yl]-3,4,5,6-tetrahydro-2H-[1,2]bipyridinyl-6′-carbonitrile] are 3.69 nM, 23.7 nM, 26.4 nM and 40.6 nM.
In the case of `Cc1noc(CN2CCC(n3c([C@@H](C)O)nc4cnc5[nH]ccc5c43)CC2)n1` [Example 703, (R)-1-{1-[1-(3-Methyl-[1,2,4]oxadiazol-5-ylmethyl)-piperidin-4-yl]-1,6-dihydro-1,2,3,5,6-tetraaza-as-indacen-2-yl}-ethanol], the Ki on JAK1 worked out at 1.97 nM; on TYK2, 182 nM; on JAK2, 30.1 nM; at JAK3, 5.01 nM.
In the same order, the values of `C[C@@H](O)c1nc2cnc3[nH]ccc3c2n1[C@H]1CCN(Cc2cnco2)C[C@H]1F` [Example 704, 1-[1-(3-Fluoro-1-oxazol-5-ylmethyl-piperidin-4-yl)-1,6-dihydro-1,2,3,5,6-tetraaza-as-indacen-2-yl]-ethanol] are 2.45 nM, 138 nM, 56.7 nM and 12.8 nM.
The corresponding values for `OC1CCN(Cc2nc3cnc4[nH]ccc4c3n2C2CCN(CC(F)F)CC2)CC1` [Example 705, 1-{1-[1-(2,2-Difluoro-ethyl)-piperidin-4-yl]-1,6-dihydro-1,2,3,5,6-tetraaza-as-indacen-2-ylmethyl}-piperidin-4-ol] are 48.6 nM, 665 nM, 340 nM and 311 nM.
The corresponding values for `OC1CCC(n2cnc3cnc4[nH]ccc4c32)C1` (stereo not drawn) [Example 708, 3-(6H-1,2,3,5,6-Tetraaza-as-indacen-1-yl)-cyclopentanol] are 11.4 nM, 77.5 nM, 38.6 nM and 79.8 nM.
In the case of `O[C@H]1CC[C@@H](n2cnc3cnc4[nH]ccc4c32)C1` [Example 709, (1S,3R)-3-(6H-1,2,3,5,6-Tetraaza-as-indacen-1-yl)-cyclopentanol], the Ki on JAK1 was determined as 6.03 nM; at TYK2 it was 44.4 nM; at JAK2, 24 nM; on JAK3 it was 56.3 nM.
